Where a SMILES comes first, the peptide text is derived from it. [ ]: non-standard residue; d: D form. The star is where a group is joined. X2 = CN(C)c1ccc2c(-c3ccc(C(=O)*)cc3C(=O)[O-])c3ccc(=[N+](C)C)cc-3oc2c1; X1 = O=C(CCCCCCCn1cnc2c(Br)c(Br)c(Br)c(Br)c21)*
Experiments:
[1] = molecular target: T1, catalytic subunit of CK2 (CK2α) (Homo sapiens, UniProt P68400); assay: Titration of fluorescent probe with CK2α (fluorescence anisotropy); assay type: binding
T1 sequence (P68400 1-335 limits assumed): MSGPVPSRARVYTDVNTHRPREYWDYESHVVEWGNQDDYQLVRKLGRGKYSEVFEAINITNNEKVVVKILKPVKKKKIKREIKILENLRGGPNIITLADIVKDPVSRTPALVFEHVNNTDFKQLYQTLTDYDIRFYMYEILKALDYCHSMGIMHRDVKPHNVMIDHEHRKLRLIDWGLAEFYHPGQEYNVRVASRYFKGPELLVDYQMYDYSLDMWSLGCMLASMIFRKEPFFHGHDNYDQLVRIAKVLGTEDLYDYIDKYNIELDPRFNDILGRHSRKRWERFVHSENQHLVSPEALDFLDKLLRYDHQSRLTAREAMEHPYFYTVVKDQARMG
Description: The binding of the fluorescent probe of formula VI to the catalytic subunit of protein kinase CK2 (CK2α) was studied at 0.2 nM concentration of the probe and 2-fold dilutions of CK2α in a buffer containing 50 mM HEPES (pH 7.5), 150 mM NaCl, 5 mM DTT, 0.1 mM EDTA and 0.005% tween 20 in 20 μl volumes in 384-well microplate. […] The change in fluorescence anisotropy vs kinase concentration was plotted and KD value was calculated by the application of nonlinear regression analysis to the relationship: A=Af(1−X1)+AbX1, where X1=QX2/[1+X2(Q−1)], where X2={P+KD+kE0−[(P+KD+kE0)^2−4PkE0]^1/2}/2P where A is measured anisotropy, Af is the anisotropy of free probe, Ab is the anisotropy of the probe-CK2α complex, Q is the ratio of fluorescence quantum yield of the probe-CK2α complex and the free probe, P is the concentration of the fluorescent probe, E0 is the nominal concentration of the kinase, k is the fraction of active kinase in enzyme preparation and KD is the dissociation constant of the probe-CK2α complex. Q value of 1.1 was calculated by dividing the total fluorescence intensity of the complex with the total fluorescence intensity of the free probe.

[2] = molecular target: holoenzyme of protein kinase CK2 (CK2α + CK2β) (Homo sapiens, UniProt P68400); assay: biochemical
Sequence of holoenzyme of protein kinase CK2 (CK2α + CK2β) (P68400 whole entry): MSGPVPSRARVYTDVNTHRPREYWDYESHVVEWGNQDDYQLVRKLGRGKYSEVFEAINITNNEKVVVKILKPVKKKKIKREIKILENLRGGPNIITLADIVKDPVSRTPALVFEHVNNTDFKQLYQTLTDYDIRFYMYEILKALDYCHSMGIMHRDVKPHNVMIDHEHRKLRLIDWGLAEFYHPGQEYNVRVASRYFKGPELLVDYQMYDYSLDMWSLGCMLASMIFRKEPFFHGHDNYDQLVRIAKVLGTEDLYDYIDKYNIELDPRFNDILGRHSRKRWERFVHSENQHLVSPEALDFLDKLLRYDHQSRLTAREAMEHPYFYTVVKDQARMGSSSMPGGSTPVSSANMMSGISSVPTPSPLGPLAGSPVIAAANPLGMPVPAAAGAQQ
Sequence of holoenzyme of protein kinase CK2 (CK2α + CK2β) (P67870 whole entry partner): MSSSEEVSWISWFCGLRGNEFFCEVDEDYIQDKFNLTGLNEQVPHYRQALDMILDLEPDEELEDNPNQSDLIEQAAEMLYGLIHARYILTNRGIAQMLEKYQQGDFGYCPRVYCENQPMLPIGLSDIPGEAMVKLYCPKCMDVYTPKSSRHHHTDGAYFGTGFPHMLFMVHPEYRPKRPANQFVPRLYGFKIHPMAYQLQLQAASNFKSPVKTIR
Description: The binding of the fluorescent probe to the holoenzyme of protein kinase CK2 was studied at 0.2 nM concentration of the probe, 2-fold dilutions of CK2α and 100 nM regulatory subunit of CK2 (CK2β) in a buffer containing 50 mM HEPES (pH 7.5), 150 mM NaCl, 5 mM DTT, 0.1 mM EDTA and 0.005% tween 20 in 20 μl volumes in 384-well microplate. […] The change in fluorescence anisotropy vs kinase concentration was plotted and KD-value was calculated by the application of nonlinear regression analysis to the relationship: A=Af(1−X1)+AbX1, where X1=QX2/[1+X2(Q−1)], where X2={P+KD+kE0−[(P+KD+kE0)^2−4PkE0]^1/2}/2P where A is measured anisotropy, Af is the anisotropy of free probe, Ab is the anisotropy of the probe-CK2 holoenzyme complex, Q is the ratio of fluorescence quantum yield of the probe-CK2 holoenzyme complex and the free probe, P is the concentration of the fluorescent probe, E0 is the nominal concentration of CK2α, k is the fraction of active kinase in enzyme preparation and KD is the dissociation constant of the probe-CK2 holoenzyme complex.

[3] = molecular target: T1, catalytic subunit of CK2 (CK2α); assay: Competition experiment: displacement of fluorescent probe VI from CK2α; assay type: binding; conditions: for Kd: calculated from I50 and KD of the probe
[4] = fluorescence anisotropy, HEPES pH 7.5, 30° C., probe X also by time gated luminescence, read-out: KD of probe-CK2α complex
[5] = CK2α 2 nM, fluorescent probe VI 3 nM
[6] = CK2α 0.8 nM, fluorescent probe VI 0.5 nM

`CCN1/C(=C/C=C/C=C/C2=[N+](CC)c3ccc(S(=O)(=O)[O-])cc3C2(C)C)C(C)(CCCC(=O)NCCCC[C@H](NC(=O)[C@H](CC(=O)O)NC(=O)[C@H](CC(=O)O)NC(=O)[C@H](CC(=O)O)NC(=O)[C@H](CC(=O)O)NC(=O)[C@H](CC(=O)O)NC(=O)[C@H](CC(=O)O)NC(=O)CCCCCCCCOc2nc3cc(C(=O)O)ccc3c3cnccc23)C(=O)O)c2cc(S(=O)(=O)O)ccc21` (stereo partly shown) [probe IX] showed a Kd [1, 4] of 0.02 nM.

`CCN1/C(=C/C=C/C=C/C2=[N+](CC)c3ccc(S(=O)(=O)[O-])cc3C2(C)C)C(C)(CCCC(=O)NCCCC[C@H](NC(=O)[C@H](CC(=O)O)NC(=O)[C@H](CC(=O)O)NC(=O)[C@H](CC(=O)O)NC(=O)[C@H](CC(=O)O)NC(=O)[C@H](CC(=O)O)NC(=O)[C@@H](CC(=O)O)NC(=O)CCCCCCCn2cnc3c(Br)c(Br)c(Br)c(Br)c32)C(=O)O)c2cc(S(=O)(=O)O)ccc21` (stereo partly shown) [probe VI] gave a Kd [1, 4] of 0.4 nM and a Kd [2] of 0.2 nM.

`CN(C)c1ccc2c(-c3ccc(C(=O)NCCCC[C@H](NC(=O)[C@H](CC(=O)O)NC(=O)[C@H](CC(=O)O)NC(=O)[C@H](CC(=O)O)NC(=O)[C@H](CC(=O)O)NC(=O)[C@H](CC(=O)O)NC(=O)[C@@H](CC(=O)O)NC(=O)CCCCCCCn4cnc5c(Br)c(Br)c(Br)c(Br)c54)C(=O)O)cc3C(=O)[O-])c3ccc(=[N+](C)C)cc-3oc2c1` [probe VII] (X1-[dD]DDDDDK(X2)-OH) showed a Kd [1, 4] of 0.4 nM.

Compound `CCN1/C(=C/C=C/C=C/C2=[N+](CC)c3ccc(S(=O)(=O)[O-])cc3C2(C)C)C(C)(CCCC(=O)NCCCC[C@H](NC(=O)[C@H](CC(=O)O)NC(=O)[C@H](CC(=O)O)NC(=O)[C@H](CC(=O)O)NC(=O)[C@H](CC(=O)O)NC(=O)[C@H](CC(=O)O)NC(=O)[C@@H](CC(=O)O)NC(=O)CCCCCCCn2ccc3ccc4n[se]nc4c32)C(=O)O)c2cc(S(=O)(=O)O)ccc21` (stereo partly shown) [probe X] has a Kd [1] of 10 nM.

In the case of TBBI-AcOH, the IC50 [3, 5] is reported as 11500 nM and the Kd [3, 5] is reported as 1500 nM.

TIBI-AcOH gave an IC50 [3, 6] of 390 nM and a Kd [3, 6] of 122 nM.

Work on `CCN1/C(=C/C=C/C=C/C2=[N+](CC)c3ccc(S(=O)(=O)[O-])cc3C2(C)C)C(C)(CCCC(=O)NCCCC[C@H](NC(=O)[C@H](CC(=O)O)NC(=O)[C@H](CC(=O)O)NC(=O)[C@H](CC(=O)O)NC(=O)[C@H](CC(=O)O)NC(=O)[C@H](CC(=O)O)NC(=O)[C@@H](CC(=O)O)NC(=O)CCCCCCCn2cnc3c(I)c(I)c(I)c(I)c32)C(=O)O)c2cc(S(=O)(=O)O)ccc21` (stereo partly shown) [probe VIII] yielded a Kd [1, 4] of 0.4 nM.
